Reference: patent US20170128390A1, “DISINFECTANT AND ANTIMICROBIAL COMPOSITIONS, IN PARTICULAR FOR THE VETERINARY FIELD” (I.C.F. S.R.L., priority 2014, published 2017)

What was measured:
[1] = system: Pseudomonas aeruginosa ATCC 27853; test: Time-killing assay (bactericidal activity of new formulations), CFU count; assay type: cell-based; conditions: CLX 0.000106%, AMP 2041 0.5 μg/ml, TRIS-EDTA 0.1% alone or 0.476%-0.126% in triple combination; for Δ (change of CFU count) at T0 / CFU count at T0: T0 = 0 min; for CFU count at T0 / CFU count at T0.5 / CFU count at T1 / CFU count at T3 / CFU count at T5 / CFU count at T10: CC 600; for Δ (change of CFU count) at T0.5 / CFU count at T0.5: T0.5 = 0.5 min; for Δ (change of CFU count) at T1 / CFU count at T1: T1 = 1 min; for Δ (change of CFU count) at T3 / CFU count at T3: T3 (footnote: T2.5 = 2.5 min); for Δ (change of CFU count) at T5 / CFU count at T5: T5 = 5 min; for Δ (change of CFU count) at T10 / CFU count at T10: T10 = 10 min
Experimental: The tubes are vortexed and incubated at 37° C. with stirring at 225 rpm for 3-4 hours, until achieving a required degree of turbidity, greater than or equal to 0.5 of the Mc Farland scale. Thereafter, the bacterial suspension is centrifuged at 1000 rpm for 20 minutes. The resulting pellet of bacteria is resuspended in 10mM PB. The turbidity is adjusted with the same buffer solution and checked by measuring the absorbance of the suspension at the spectrophotometer. The absorbance is considered equal to 0.5 of the Mc Farland scale when the optical density at 600 nm is between 0:08-0:13. At this value, the bacterial suspension contains approximately 10^8UFC/ml. Two hundred microliters of the assessed and adjusted bacterial suspension are added to 19.8 ml of 10 mM PB to obtain a final dilution of 1:100. Then, within a thirty minutes, 0:05 ml of this suspension (10^6UFC/ml) are inoculated into each well of an ELISA plate to obtain a final concentration of bacteria of about 5×10^5UFC/ml. […] Thereafter, each sample is serially diluted in PBS (pH 7.4) and 50 μl are plated on LB agar and the plates incubated at 37° C. for 24 hours for the count of CFU. The sterility control (100 μl PBS in place of the bacterial suspension) and the control in the absence of the new formulation are set up. The test is also carried out in the presence of 0.3% and 3.0% (w/v) BSA to simulate a paraphysiological environment. All experiments were repeated in triplicate.

[2] = system: Staphylococcus aureus ATCC 25923; test: as above; assay type: cell-based; conditions: CLX 0.000106%, AMP 2041 0.5 μg/ml; for Δ (change of CFU count) at T0 / CFU count at T0: T0 = 0 min; for CFU count at T0 / CFU count at T0.5 / CFU count at T1 / CFU count at T3 / CFU count at T5 / CFU count at T10: CC 600; for Δ (change of CFU count) at T0.5 / CFU count at T0.5: T0.5 = 0.5 min; for Δ (change of CFU count) at T1 / CFU count at T1: T1 = 1 min; for Δ (change of CFU count) at T3 / CFU count at T3: T3 (footnote: T2.5 = 2.5 min); for Δ (change of CFU count) at T5 / CFU count at T5: T5 = 5 min; for Δ (change of CFU count) at T10 / CFU count at T10: T10 = 10 min
Experimental: For each strain of reference, three to five morphologically similar colonies are selected from blood agar plates and inoculated into tubes containing 6 ml of Brain Heart Infusion broth (DIFCO, USA).
The tubes are vortexed and incubated at 37° C. with stirring at 225 rpm for 3-4 hours, until achieving a required degree of turbidity, greater than or equal to 0.5 of the Mc Farland scale.
Thereafter, the bacterial suspension is centrifuged at 1000 rpm for 20 minutes. The resulting pellet of bacteria is resuspended in 10mM PB. The turbidity is adjusted with the same buffer solution and checked by measuring the absorbance of the suspension at the spectrophotometer. The absorbance is considered equal to 0.5 of the Mc Farland scale when the optical density at 600 nm is between 0:08-0:13. At this value, the bacterial suspension contains approximately 10^8UFC/ml. Two hundred microliters of the assessed and adjusted bacterial suspension are added to 19.8 ml of 10 mM PB to obtain a final dilution of 1:100. Then, within a thirty minutes, 0:05 ml of this suspension (10^6UFC/ml) are inoculated into each well of an ELISA plate to obtain a final concentration of bacteria of about 5×10^5UFC/ml.
The time-killing assay was carried out to evaluate the bactericidal effects of the new formulations, using a modified quantitative test of the European standards EN1040 and EN1276. 100 μl of the bacterial suspension are added to 900 μl of the new formulation and aliquots of 50 μl of the mixture are subjected to assay at 0.5, 1, 2.5, 5, 10, 20, 30, 60, 90 and 120 min., respectively. 450 μl of neutralizing solution are added to each sample and left to act at room temperature for 3 minutes. Thereafter, each sample is serially diluted in PBS (pH 7.4) and 50 μl are plated on LB agar and the plates incubated at 37° C. for 24 hours for the count of CFU. The sterility control (100 μl PBS in place of the bacterial suspension) and the control in the absence of the new formulation are set up. The test is also carried out in the presence of 0.3% and 3.0% (w/v) BSA to simulate a paraphysiological environment. All experiments were repeated in triplicate.

Row | Molecule | Δ (change of CFU count) at T0 [1] | CFU count at T0 [1] | Δ (change of CFU count) at T0.5 [1] | CFU count at T0.5 [1] | Δ (change of CFU count) at T1 [1] | CFU count at T1 [1] | Δ (change of CFU count) at T3 [1] | CFU count at T3 [1] | Δ (change of CFU count) at T5 [1] | CFU count at T5 [1] | Δ (change of CFU count) at T10 [1] | CFU count at T10 [1] | Δ (change of CFU count) at T0 [2] | CFU count at T0 [2] | Δ (change of CFU count) at T0.5 [2] | CFU count at T0.5 [2] | Δ (change of CFU count) at T1 [2] | CFU count at T1 [2] | Δ (change of CFU count) at T3 [2] | CFU count at T3 [2] | also measured
1 | [H]/N=C(\N/C(=N/[H])NCCCCCCNC(=N)NC(=N)Nc1ccc(Cl)cc1)Nc1ccc(Cl)cc1 [CLX, chlorhexidine] | Δ = 0% | 600 | Δ = 0% | 600 | Δ = 0% | 600 | Δ = 0% | 600 | Δ = 0% | 600 | Δ = 0% | 600 | Δ = 0% | 600 | Δ = 0% | 600 | Δ = 0% | 600 | Δ = 0% | 600 | Δ (change of CFU count) at T5 [2]: Δ = 0%; CFU count at T5 [2]: 600; Δ (change of CFU count) at T10 [2]: Δ = 0%; CFU count at T10 [2]: 600
2 | AMP 2041: peptide named AMP2041 (SEQ.ID. No.1), synthesized by SelleckChem (HKCAKIKWRGVHVKYCA) | Δ = 0% | 600 | Δ = 0% | 600 | Δ = 0% | 600 | Δ = 0% | 600 | Δ = 0% | 600 | Δ = 0% | 600 | Δ = 0% | 600 | Δ = 0% | 600 | Δ = 0% | 600 | Δ = 0% | 600 | Δ (change of CFU count) at T5 [2]: Δ = 0%; CFU count at T5 [2]: 600; Δ (change of CFU count) at T10 [2]: Δ = 0%; CFU count at T10 [2]: 600
